Test results: PubChem BioAssay (NCI)
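1) Cells in 96-well plates. 2) Compound, 48 h, 5 concentrations. 3) Linear interpolation between surrounding doses. 4) Unreached endpoint = highest concentration. TGI marks complete inhibition of growth.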

Columns and labels:
Assay in all cases: growth of human tumour cells (NCI), 48 h
[1] = test system: 786-0 renal
[2] = test system: A498 renal
[3] = test system: A549 NSCLC
[4] = test system: ACHN renal
[5] = test system: CAKI-1 renal
[6] = test system: CCRF-CEM leukemia
[7] = test system: COLO 205 colon
[8] = test system: DLD-1 colon
[9] = test system: DMS 114 small cell lung
[10] = test system: DMS 273 small cell lung
[11] = test system: EKVX NSCLC
[12] = test system: HCC-2998 colon
[13] = test system: HCT-15 colon
[14] = test system: HL-60(TB) leukemia
[15] = test system: HOP-18 NSCLC
[16] = test system: HOP-62 NSCLC
[17] = test system: HOP-92 NSCLC
[18] = test system: HT29 colon
[19] = test system: IGROV1 ovarian
[20] = test system: K-562 leukemia
[21] = test system: KM12 colon
[22] = test system: KM20L2 colon
[23] = test system: LOX IMVI melanoma
[24] = test system: LXFL 529 NSCLC
[25] = test system: M14 melanoma
[26] = test system: M19-MEL melanoma
[27] = test system: MALME-3M melanoma
[28] = test system: MOLT-4 leukemia
[29] = test system: NCI-H226 lung
[30] = test system: NCI-H23 lung
[31] = test system: NCI-H460 lung
[32] = test system: NCI-H522 lung
[33] = test system: OVCAR-3 ovarian
[34] = test system: OVCAR-4 ovarian
[35] = test system: OVCAR-5 ovarian
[36] = test system: OVCAR-8 ovarian
[37] = test system: RPMI-8226 leukemia
[38] = test system: RXF 393 renal
[39] = test system: SF-268 CNS
[40] = test system: SF-295 CNS
[41] = test system: SF-539 CNS
[42] = test system: SK-MEL-2 melanoma
[43] = test system: SK-MEL-28 melanoma
[44] = test system: SK-MEL-5 melanoma
[45] = test system: SK-OV-3 ovarian
[46] = test system: SN12C renal
[47] = test system: SNB-19 CNS
[48] = test system: SNB-75 CNS
[49] = test system: SNB-78 CNS
[50] = test system: SW-620 colon
[51] = test system: TK-10 renal
[52] = test system: U251 CNS
[53] = test system: UACC-257 melanoma
[54] = test system: UACC-62 melanoma
[55] = test system: UO-31 renal
[56] = test system: XF 498 CNS
[57] = test system: SR leukemia

CN(/N=C/c1cccc2cccnc12)c1ccccc1
TGI [1]: > 100 µM | TGI [2]: > 100 µM | TGI [3]: > 100 µM | TGI [4]: > 100 µM | TGI [5]: > 100 µM | TGI [6]: > 100 µM | TGI [7]: > 100 µM | TGI [8]: > 100 µM | TGI [9]: > 100 µM | TGI [10]: > 100 µM | TGI [11]: > 100 µM | TGI [12]: > 100 µM | TGI [13]: > 100 µM | TGI [14]: > 100 µM | TGI [15]: > 100 µM | TGI [16]: > 100 µM | TGI [17]: > 100 µM | TGI [18]: > 100 µM | TGI [19]: > 100 µM | TGI [20]: > 100 µM | TGI [21]: > 100 µM | TGI [22]: > 100 µM | TGI [23]: > 100 µM | TGI [24]: > 100 µM | TGI [25]: > 100 µM | TGI [26]: > 100 µM | TGI [27]: > 100 µM | TGI [28]: > 100 µM | TGI [29]: > 100 µM | TGI [30]: > 100 µM | TGI [31]: > 100 µM | TGI [32]: > 100 µM | TGI [33]: 68 µM | TGI [34]: > 100 µM | TGI [35]: > 100 µM | TGI [36]: > 100 µM | TGI [37]: > 100 µM | TGI [38]: > 100 µM | TGI [39]: > 100 µM | TGI [40]: > 100 µM | TGI [41]: > 100 µM | TGI [42]: > 100 µM | TGI [43]: > 100 µM | TGI [44]: > 100 µM | TGI [45]: > 100 µM | TGI [46]: > 100 µM | TGI [47]: > 100 µM | TGI [48]: > 100 µM | TGI [49]: > 100 µM | TGI [50]: > 100 µM | TGI [51]: > 100 µM | TGI [52]: > 100 µM | TGI [53]: > 100 µM | TGI [54]: > 100 µM | TGI [55]: > 100 µM | TGI [56]: > 100 µM

O=C1C(=O)c2ccccc2C(O)=C1CCCc1ccc(Oc2ccccc2)cc1
TGI [1]: 35.4 µM | TGI [2]: 90.5 µM | TGI [4]: 76.5 µM | TGI [5]: 70.5 µM | TGI [6]: > 100 µM | TGI [7]: 32.1 µM | TGI [8]: > 100 µM | TGI [9]: 23.5 µM | TGI [10]: 51.8 µM | TGI [11]: > 100 µM | TGI [12]: 74.3 µM | TGI [13]: 79.7 µM | TGI [14]: 47.9 µM | TGI [16]: 23.2 µM | TGI [17]: 49.5 µM | TGI [18]: 75.2 µM | TGI [19]: 84.3 µM | TGI [20]: > 100 µM | TGI [21]: > 100 µM | TGI [22]: 73.2 µM | TGI [23]: 15.3 µM | TGI [24]: > 100 µM | TGI [25]: 24.5 µM | TGI [26]: 37.9 µM | TGI [27]: 75 µM | TGI [28]: > 100 µM | TGI [29]: 47.9 µM | TGI [30]: 19.1 µM | TGI [31]: 41.9 µM | TGI [32]: 34.2 µM | TGI [33]: 24.9 µM | TGI [34]: > 100 µM | TGI [35]: > 100 µM | TGI [36]: > 100 µM | TGI [37]: > 100 µM | TGI [38]: 64.1 µM | TGI [39]: > 100 µM | TGI [40]: 74.3 µM | TGI [41]: 28 µM | TGI [42]: 83.4 µM | TGI [43]: > 100 µM | TGI [44]: 10.6 µM | TGI [45]: > 100 µM | TGI [46]: > 100 µM | TGI [47]: > 100 µM | TGI [48]: 73.9 µM | TGI [49]: 97.3 µM | TGI [57]: > 100 µM | TGI [50]: > 100 µM | TGI [51]: > 100 µM | TGI [52]: > 100 µM | TGI [53]: 23.9 µM | TGI [54]: 15 µM | TGI [55]: 32.6 µM | TGI [56]: 66.1 µM
